These results are taken from PubChem BioAssay (NCI).

What all share (assay): inhibition of tumour cell growth, NCI panel, 48 h
Test [1] has as its system SF-268 CNS.
For test [2], the system named is NCI-H23 lung.
Test [3] has as its system TK-10 renal.
In test [4] the test system is MDA-MB-231 breast.
Test [5] deals with UACC-62 melanoma.
Test [6] concerns UO-31 renal.
Test [7] relates to SNB-19 CNS.
The subject of test [8] is U251 CNS.
The test system of test [9] is CCRF-CEM leukemia.
Test [10] deals with CAKI-1 renal.

Structures are written as SMILES.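 Results reflect a 48-hour exposure of cells in 96-well plates to compound at five concentrations. GI50 marks 50% less growth. At the TGI there is no net growth.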

With `COc1ccc(-n2cc(-c3cc(OC)c(OC)c(OC)c3)[nH]c2=S)cc1Cl`, the GI50 was 18.3 µM in [1]; 46.4 µM in test [2]; 17.2 µM in [3]; 7.7 µM in test [4]; more than 100 µM in test [5]; 38.6 µM in test [6]. Besides, the GI50 in test [7] is 19.5 µM; in test [8] it was 20 µM; in [9], 0.6 µM; in [10], 4.86 µM. The TGI in [1] is 50.3 µM; in [2], more than 100 µM; in [3], 66.7 µM; in test [4], 49.8 µM; in [5] it was more than 100 µM; in [6] it was more than 100 µM. Also, the TGI in test [7] is 58.4 µM; in test [8] it was 50.7 µM; in test [9], more than 100 µM; in test [10], 33.7 µM.

With `Cc1cn([C@H]2C[C@H](O)[C@@H](CO)O2)c(=O)nc1N`, the TGI in test [1], in [2], in test [3], in test [4], in test [5] and in [6] was more than 100 µM in each case. Moreover, the TGI in [7], in [8], in [9] and in [10] was more than 100 µM throughout.

As to `CN1CCN(c2ccc3nc(-c4[nH]ncc4Nc4ncnc5c4OCCCN5)[nH]c3c2)CC1`, the GI50 in [1] was less than 0.0112 µM; in [2] it was less than 0.0109 µM; in test [3], 0.0166 µM; in test [4] it was less than 0.01 µM; in [5] it was 0.0103 µM; in test [6], 0.0179 µM. Moreover, the GI50 in test [7] was 0.0106 µM; in test [8], less than 0.01 µM; in test [9], less than 0.01 µM; in [10], less than 0.01 µM. The TGI in test [1] is 0.049 µM; in test [2], 0.0726 µM; in test [3], 0.0576 µM; in test [4], 0.0423 µM; in [5], 0.0529 µM; in test [6], 0.0578 µM. The TGI in test [7] turned out to be 0.172 µM; in test [8], 0.123 µM; in [9] it was 1.36 µM; in test [10], 0.0805 µM.

Turning to `C=C(C)[C@@H]1CC[C@]2(C(=O)O)CC[C@]3(C)[C@H](CC[C@@H]4[C@@]5(C)C/C(=C/c6cccc(I)c6)C(=O)C(C)(C)[C@@H]5CC[C@]43C)[C@@H]12`, the GI50 in test [1] was 3.17 µM; in test [2] it was 2.49 µM; in test [3], 3.25 µM; in [4], 2.83 µM; in [5], 1.82 µM; in [6], 1.72 µM. The GI50 was 3.28 µM in [7], 1.71 µM in [8], 2.74 µM in test [9] and 2.22 µM in [10]. Also, the TGI stood at 15.1 µM in test [1]; 8.44 µM in test [2]; 20.6 µM in test [3]; 10 µM in [4]; 4.16 µM in test [5]; 5.17 µM in [6]. In addition, the TGI is 17.5 µM in [7], 3.91 µM in test [8], 10.3 µM in test [9] and 10.7 µM in [10].

Take `CCOC(=O)c1ccc(N(C=O)CCC(=O)CCl)cc1`: the GI50 in [1] was 0.411 µM; in test [2] it was 0.483 µM; in test [3], 1.78 µM; in test [4] it was 0.275 µM; in test [5], 0.524 µM; in test [6] it was 0.552 µM. For the same molecule, the GI50 in test [7] is 2.37 µM; in test [8] it was 0.342 µM; in [9], 0.037 µM; in [10] it was 0.528 µM. For the same molecule, the TGI amounted to 4.95 µM in [1]; 7.81 µM in [2]; 7.03 µM in test [3]; 1.16 µM in [4]; 3.69 µM in test [5]; 1.98 µM in test [6]. Besides, the TGI turned out to be 22.4 µM in test [7], 10.8 µM in test [8], 1.6 µM in [9] and 2.05 µM in [10].

Turning to `CCCCCCCCCCCCCCCC(=O)OCC1OC(OC)C(NC(=O)N(CCCl)N=O)C(O)C1O` (stereo not given), the TGI was 37.4 µM in test [1]; 32 µM in test [2]; 63.2 µM in test [3]; 35.5 µM in test [4]; 15 µM in test [5]; 48.9 µM in test [6]. Moreover, the TGI in [7] was more than 67.2 µM; in test [8], 27 µM; in [9], 53.7 µM; in [10] it was 45.4 µM.
